These results are taken from patent US10183935B2, “Benzamide derivatives as modulators of the follicle stimulating hormone” (Merck Patent GmbH, priority 2012, dated 2019).

One assay has as its target T1, FSHR (Homo sapiens, UniProt P23945).
T1 construct: expressed in transfected cells; host or cells: CHO (Cho-FSHR-LUC-1-1-43)
T1 sequence (P23945 18-695): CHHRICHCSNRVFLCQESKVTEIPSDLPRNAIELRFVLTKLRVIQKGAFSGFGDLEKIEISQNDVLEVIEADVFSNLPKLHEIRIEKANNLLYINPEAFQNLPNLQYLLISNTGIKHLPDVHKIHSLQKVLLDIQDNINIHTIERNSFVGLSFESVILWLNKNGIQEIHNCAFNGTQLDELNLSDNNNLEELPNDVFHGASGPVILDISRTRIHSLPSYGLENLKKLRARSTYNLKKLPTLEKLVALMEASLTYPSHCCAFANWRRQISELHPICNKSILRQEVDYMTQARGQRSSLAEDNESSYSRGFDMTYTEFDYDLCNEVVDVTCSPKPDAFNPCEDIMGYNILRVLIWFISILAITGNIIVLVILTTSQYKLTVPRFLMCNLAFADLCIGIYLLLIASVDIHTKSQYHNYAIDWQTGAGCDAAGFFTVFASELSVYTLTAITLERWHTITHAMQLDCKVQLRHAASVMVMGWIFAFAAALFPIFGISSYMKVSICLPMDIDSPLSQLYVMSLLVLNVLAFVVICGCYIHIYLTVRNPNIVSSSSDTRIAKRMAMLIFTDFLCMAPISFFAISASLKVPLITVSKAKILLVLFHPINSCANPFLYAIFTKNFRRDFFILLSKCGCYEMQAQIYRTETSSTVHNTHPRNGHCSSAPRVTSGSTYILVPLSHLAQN
The experiment in a line: EC50 of Cyclic AMP Production in CHO FSHR Cells+EC20 FSH (Assay A). It is filed as cell-based. The conditions noted are these: for EC50: cAMP HTRF. As for the experimental part:
Example 17: EC50 of Cyclic AMP Production in CHO FSHR Cells+EC20 FSH (Assay A)
2500 Cho-FSHR-LUC-1-1-43 cells were plated per well in 5 μl of phenol red free DMEM/F12+1% FBS. Cells were plated in 384 well, solid white low volume plates (Greiner 784075) by Multidrop. Cells were assayed by adding 100 μl of 2×EC20 FSH/IBMX in DMEM/F12+0.1% BSA) by Multidrop to 2 μl of test compound stamped in 384 well plates (compounds are diluted 1:50). The final FSH concentration was […], and the final IBMX concentration was 200 μM. The compound plate map was as follows: Column 1: 2 μl of DMSO; Column 2: 2 μl of DMSO; Columns 3-12 and 13-24: 2 μl of test compound, diluted 1:4 in 100% DMSO, or 2 μl of FSH, diluted 1:4 in DMEM/F12+0.1% BSA. The starting concentration for FSH was 50 nM (final concentration was 0.5 nM). Furthermore, Column 23 contained 2 μl of EC100 FSH reference (100×) (diluted in DMEM/F12+0.1% BSA) at a final concentration of 0.5 nM, and Column 24 contained 2 μl of 1 mM AS707664/2 reference compound 2.5 μl of compound+EC20 FSH mixture were transferred to cell plates (1:2 dilution into 5 μl of cell media) The plates were incubated at 37° C. for 1 h. 10 μl of mixed HTRF (CisBio #62AM4PEC) reagents were added per well and incubated at room temperature for 1 h. The plates were read on Envision using the cAMP HTRF—low volume 384 well protocol. The readout was the calculated fluorescence ratio (665 nm/620 nm). Values given in percent (%) indicate the percental effect (response) at a certain concentration of agonist relative to the maximum response of the FSH standard.
A general note: In TR-FRET formats the signal depends on donor and acceptor labels being close together.

In another assay the test system is Rat Granulosa. In words: Rat Granulosa EC50 FSH (Assay B). As to conditions: rat granulosa cells. It is filed as cell-based. The protocol: Example 18: Rat Granulosa EC50 FSH (Assay B)
The assay was performed pursuant to the teaching of Yanofsky et al. (2006) Allosteric activation of the follicle-stimulating hormone (FSH) receptor by selective, nonpeptide agonists. JBC 281(19): 13226-13233, which is incorporated by reference in the disclosure of the invention.

Usually EC50 stands for the concentration at which the effect is half-maximal. In turn, `Cc1ccccc1N1CCN(c2c(NC(=O)c3coc(C4CC4)n3)cc(C(=O)NCCCN3CCCC3=O)cc2C(F)(F)F)CC1` showed an EC50 on FSHR of 1000 to 5000 nM.
Consider `Cc1ccccc1N1CCN(c2cc(Cl)c(C(=O)NCCCN3CCCC3=O)cc2NC(=O)c2coc(C3CC3)n2)CC1`, for which the EC50 on FSHR was less than 100 nM; with Rat Granulosa it was 100 to 1000 nM.
As for `Cc1ccccc1N1CCN(c2c(NC(=O)c3ccco3)cc(C(=O)NCCCN3CCCC3=O)cc2C(F)(F)F)CC1`, on FSHR (@ 3 μM, read-out: Assay A: percental effect (response) relative to the maximum response of the FSH standard), the Emax at 3 µM stood at 39%.
Turning to `COc1cc(N2CCN(c3ccccc3C)CC2)c(NC(=O)c2coc(C3CC3)n2)cc1C(=O)NCCCN1CCCC1=O`, the EC50 at FSHR was less than 100 nM; in the assay with Rat Granulosa, 1000 to 5000 nM.
At FSHR, `Cc1ccccc1N1CCN(c2cc(O)c(C(=O)NCCCN3CCCC3=O)cc2NC(=O)c2coc(C3CC3)n2)CC1` displayed an EC50 of 100 to 1000 nM.
With `Cc1ccccc1N1CCN(c2cc3c(cc2NC(=O)c2coc(C4CC4)n2)C(=O)N(CCCN2CCCC2=O)CC3)CC1`, the EC50 at FSHR was less than 100 nM. For the same compound, the “Assay B: percental effect (response)” value in the assay with Rat Granulosa (@ 5 μM) was determined as 133% @ 5 μM.
Compound `Cc1ccccc1N1CCN(c2cc(F)c(C(=O)NCCCN3CCCC3=O)cc2NC(=O)c2coc(C3CC3)n2)CC1` came in with an EC50 on FSHR of 100 to 1000 nM.
The same measure, in the same setting: the same measure for `Cc1ccc(C)c(N2CCN(c3cc(Cl)c(C(=O)NCCCN4CCCC4=O)cc3NC(=O)c3coc(C4CC4)n3)CC2)c1`: 100 to 1000 nM; for `Cc1ccc(C)c(N2CCN(c3cc(Cl)c(C(=O)NCc4cccc(CN(C)C)c4)cc3NC(=O)c3coc(C4CC4)n3)CC2)c1`: 1000 to 5000 nM.
On the same count and under the same terms, the same measure for `Cc1ccccc1N1CCN(c2cc(C3CC3)c(C(=O)NCCCN3CCCC3=O)cc2NC(=O)c2ccco2)CC1`: 1000 to 5000 nM; for `Cc1ccccc1N1CCN(c2cc(C3CC3)c(C(=O)NCCCN3CCCC3=O)cc2NC(=O)c2coc(C3CC3)n2)CC1`: 100 to 1000 nM.
As to `CCc1cc(N2CCN(c3ccccc3C)CC2)c(NC(=O)c2coc(C3CC3)n2)cc1C(=O)NCCCN1CCCC1=O`, the EC50 on FSHR and in the assay on Rat Granulosa was 100 to 1000 nM throughout.
`Cc1ccccc1N1CCN(c2cc(N(C)C)c(C(=O)NCCCN3CCCC3=O)cc2NC(=O)c2ccco2)CC1` registered an EC50 at FSHR of 1000 to 5000 nM.
For `Cc1ccccc1N1CCN(c2cc(N(C)C)c(C(=O)NCCCN3CCCC3=O)cc2NC(=O)c2coc(C3CC3)n2)CC1`, the EC50 at FSHR and in the assay with Rat Granulosa was 100 to 1000 nM each time.
At FSHR, `Cc1ccccc1N1CCN(c2cc(Cl)c(C(=O)NCc3cccc(CN(C)C)c3)cc2NC(=O)c2ccco2)CC1` registered a concentration for a half-maximal effect (EC50) of more than 5000 nM.
For the compound `COCCOc1cc(N2CCN(c3ccccc3C)CC2)c(NC(=O)c2coc(C3CC3)n2)cc1C(=O)NCCCN1CCCC1=O`, the EC50 at FSHR and in the assay on Rat Granulosa was 100 to 1000 nM throughout.
As to `CCOc1cc(N2CCN(c3ccccc3C)CC2)c(NC(=O)c2coc(C3CC3)n2)cc1C(=O)NCCCN1CCCC1=O`, the EC50 at FSHR is less than 100 nM; in the assay with Rat Granulosa, 100 to 1000 nM.
In turn, `CCOc1cc(N2CCN(c3ccccc3C)CC2)c(NC(=O)c2ccco2)cc1C(=O)NCCCN1CCCC1=O` had an EC50 on FSHR of 1000 to 5000 nM.
On to `Cc1ccc(C(=O)Nc2cc(C(=O)NCCCN3CCOC3=O)c(Cl)cc2N2CCN(c3ccccc3C)CC2)o1`, for which, at FSHR, the EC50 was in the range of 100 to 1000 nM.
In the case of `Cc1ccccc1N1CCN(c2cc(Cl)c(C(=O)NCCCN3CCOC3=O)cc2NC(=O)c2coc(C3CC3)n2)CC1`, the EC50 on FSHR is less than 100 nM; in the assay with Rat Granulosa, 100 to 1000 nM.
Compound `Cc1ccccc1N1CCN(c2cc3c(cc2NC(=O)c2ccco2)C(=O)N(Cc2cccc(CN(C)C)c2)CC3)CC1` registered an EC50 at FSHR of 1000 to 5000 nM.
The same measure, in the same setting: as for `Cc1ccc(F)cc1N1CCN(c2cc(Cl)c(C(=O)NCCCN3CCCC3=O)cc2NC(=O)c2coc(C3CC3)n2)CC1`, the figure is 100 to 1000 nM; as for `Cc1ccccc1N1CCN(c2cc(C(F)(F)F)c(C(=O)NCCCN3CCCC3=O)cc2NC(=O)c2coc(C3CC3)n2)CC1`, 100 to 1000 nM.
For `Cc1cccnc1N1CCN(c2cc(Cl)c(C(=O)NCCCN3CCOC3=O)cc2NC(=O)c2coc(C3CC3)n2)CC1`, the EC50 at FSHR is less than 100 nM; with Rat Granulosa, 100 to 1000 nM.
At FSHR, `Cc1ccc(F)cc1N1CCN(c2cc(Cl)c(C(=O)NCc3cccc(CN(C)C)c3)cc2NC(=O)c2ccco2)CC1` gave an EC50 of 1000 to 5000 nM.
As for `Cc1ccccc1N1CCN(c2cc(Cl)c(C(=O)NCCCc3nnn(C)n3)cc2NC(=O)c2coc(C3CC3)n2)CC1`, the EC50 was in the range of 100 to 1000 nM at FSHR and 1000 to 5000 nM with Rat Granulosa.
On the same counts, the results for `Cc1ccccc1N1CCN(c2cc(Cl)c(C(=O)N[C@H]3CCC[C@H](O)[C@@H]3O)cc2NC(=O)c2coc(C3CC3)n2)CC1` are less than 100 nM and 1000 to 5000 nM.
For `Cc1ccccc1N1CCN(c2cc(Cl)c(C(=O)NCCCc3nnnn3C)cc2NC(=O)c2coc(C3CC3)n2)CC1`, in that order: 100 to 1000 nM and 100 to 1000 nM.
For the compound `Cc1ccccc1N1CCN(c2cc(Cl)c(C(=O)NCCC(C)(C)C(=O)O)cc2NC(=O)c2coc(C3CC3)n2)CC1`, at FSHR, the EC50 lay within 100 to 1000 nM. For the same compound, the “Assay B: percental effect (response)” value in the assay on Rat Granulosa (@ 25 μM) was determined as 46% @ 25 μM.
Regarding `Cc1ccccc1N1CCN(c2cc(F)c(C(=O)NCCCN3CCOC3=O)cc2NC(=O)c2coc(C3CC3)n2)CC1`, the results for the EC50 on FSHR and in the assay with Rat Granulosa were 100 to 1000 nM and 1000 to 5000 nM, respectively.
At FSHR, `Cc1ccccc1N1CCN(c2cc(F)c(C(=O)N[C@H]3CCC[C@H](C(=O)OC(C)(C)C)C3)cc2NC(=O)c2coc(C3CC3)n2)CC1` showed a half-maximal effective concentration (EC50) of 100 to 1000 nM. Besides, the “Assay B: percental effect (response)” value in the assay on Rat Granulosa (concentration not given) worked out at 39%.
Take `Cc1ccccc1N1CCN(c2cc3c(cc2NC(=O)c2coc(C4CC4)n2)C(=O)N(CCCN2CCOC2=O)CC3)CC1`: the EC50 is less than 100 nM on FSHR and 100 to 1000 nM with Rat Granulosa.
On to `Cc1ccccc1N1CCN(c2cc3c(cc2NC(=O)c2coc(C4CC4)n2)C(=O)N(C2CCC[C@H](O)[C@@H]2O)CC3)CC1` (stereo partly shown), for which the EC50 in the assay on Rat Granulosa is 1000 to 5000 nM.
`Cc1ccccc1N1CCN(c2cc3c(cc2NC(=O)c2coc(C4CC4)n2)C(=O)N([C@H]2CCC[C@H](O)[C@@H]2O)CC3)CC1` displayed an EC50 at FSHR of 100 to 1000 nM.
In turn, `Cc1ccccc1N1CCN(c2cc(F)c(C(=O)N[C@H]3CCC[C@@H](C(=O)OC(C)(C)C)C3)cc2NC(=O)c2coc(C3CC3)n2)CC1` displayed an EC50 at FSHR of more than 5000 nM. Also, the “Assay B: percental effect (response)” value in the assay with Rat Granulosa (concentration not given) turned out to be 11%.
Turning to `Cc1ccccc1N1CCN(c2cc(F)c(C(=O)N[C@@H]3CCC[C@H](C(=O)OC(C)(C)C)C3)cc2NC(=O)c2coc(C3CC3)n2)CC1`, the figures for the EC50 on FSHR and in the assay on Rat Granulosa were 100 to 1000 nM and less than 100 nM, respectively.
`Cc1ccccc1N1CCN(c2cc(F)c(C(=O)N[C@H]3CCC[C@@H](C(=O)O)C3)cc2NC(=O)c2coc(C3CC3)n2)CC1` came in with an EC50 at FSHR of less than 100 nM.
`COC(=O)[C@@H]1CCC[C@H](NC(=O)c2cc(NC(=O)c3coc(C4CC4)n3)c(N3CCN(c4ccccc4C)CC3)cc2F)C1` yielded an EC50 on FSHR of 100 to 1000 nM.
On the same count and under the same terms, the same measure for `Cc1ccccc1N1CCN(c2cc(F)c(C(=O)N[C@@H]3CCC[C@H](C(=O)O)C3)cc2NC(=O)c2coc(C3CC3)n2)CC1`: less than 100 nM.
The same measure, in the same setting: the same measure for `Cc1ccccc1N1CCN(c2cc3ccn(CCCN4CCOC4=O)c(=O)c3cc2NC(=O)c2coc(C3CC3)n2)CC1`: less than 100 nM.
